# pKd: −log10 of the molar value. Entries after “also recorded” stand apart in the source; their conditions may differ.
# What was measured:
# CRMP-2 = biological target: T1, CRMP-2 (Rattus norvegicus, UniProt P47942); assay: biological pull-down (Affinity Fishhook) with biotinylated affinity reagents in rat brain; format: binding; details: biotinyl affinity reagent
# T1 construct: from tissue; host or cells: rat brain (extract/fractions)
# Description: Biological pull-down experiments (“Affinity Fishhook”) were performed by incubating a set of four Lacosamide-related affinity-reagents with biotinyl-moieties (R)—N-Benzyl-2-acetamido-6-[Nε-(biotinyl)-2-isothiocynato-6-aminohexanamido]-aminohexanamide((R)-7), (S)—N-Benzyl-2-acetamido-6-[Nε-(biotinyl)-2-isothiocynato-6-aminohexanamido]-aminohexanamide((S)-7), (R)—N-{3-[Nε-(biotinyl)-2-isothiocynato-6-aminohexanamide]-benzyl}-2-acetamido-3-methoxypropion-amide((R)-34) and (R)—N-{4-[Nε-(biotinyl)-2-isothiocynato-6-aminohexanamide]-benzyl}-2-acetamido-3-methoxypropion-amide((R)-35) to rat brain.
# (a) The pattern of affinity captured proteins is completely different from raw extracts and controls and the protein is consistently captured under a variety of conditions.
# [1] = test system: hippocampal primary cells; assay: axon growth in hippocampal primary cells (Tau-1 immunofluorescence); format: cell-based; details: for BDNF-induced axonal growth: 200 ng/ml BDNF
# Description: It could be shown that the neurotrophins NT3 and BDNF stimulate axonal outgrowth in a primary culture of embryonal hippocampal neurons. Quantification of neurite outgrowth was performed by immunofluorescence microscopy employing an antibody against the axonal marker protein Tau-1.
# human CRMP-2 = biological target: T2, human CRMP-2 (Homo sapiens, UniProt Q16555); assay: competition protein binding with [14C]-labeled lacosamide, crude membranes from CRMP-2 transfected Xenopus oocytes
# T2 construct: expressed in transfected cells; host or cells: Xenopus oocytes (crude membranes)
# Description: It was therefore the object of the present invention to provide a method of identifying compounds suitable for the prevention, alleviation or/and treatment of diseases or conditions which can be treated by Lacosamide, based on the mode of action of Lacosamide. […] The binding was confirmed in experiments employing heterologously expressed human CRMP-2 in Xenopus oocytes.
# Based on the results of the previous study, the present binding curve ranged from 1 to 100 μM (10 concentrations, in triplicates).
# [2] = test system: neural derivates of murine embryonal stem cells; assay: NMDA excitotoxic insult, survival of neural derivates of murine embryonal stem cells (calcium imaging); format: cell-based; details: 200 μM NMDA; for survival rate after excitotoxic insult: 100 μM compound, NMDA alone 15.6% (16%)
smiles,measurement,setting,value
"COC[C@@H](NC(C)=O)C(=O)NCc1ccc(NC(=O)C(CCCCNC(=O)CCCCC2SCC3NC(=O)NC32)N=C=S)cc1 (stereo partly drawn) [(R)-35, (R)—N-{4-[Nε-(biotinyl)-2-isothiocynato-6-aminohexanamide]-benzyl}-2-acetamido-3-methoxypropion-amide]",proteins captured in pull-down,CRMP-2,"enrichment of an overlapping set of proteins, including collapsing response mediator protein (CRMP-2)"
"COC[C@@H](NC(C)=O)C(=O)NCc1ccccc1 [Lacosamide, (R)-2-acetamide-N-benzyl-3-methoxypropionamide]",NT3-induced axonal growth,"[1]; 50 ng/ml NT3, 100 μM Lacosamide",significantly decreases
same,BDNF-induced axonal growth,[1]; 1 μM Lacosamide,significantly decreases
same,BDNF-induced axonal growth,[1]; 100 μM Lacosamide,significantly decreases
same,basal axonal outgrowth (axon length),"[1]; Lacosamide 1-200 μM, no neurotrophin",does not significantly change; also recorded: did not significantly change
same,NT3-induced neuronal outgrowth,[1]; concentration not stated in text (FIG. 2),attenuated
same,BDNF-induced neuronal outgrowth,[1]; concentration not stated in text (FIG. 3),attenuated
same,pKd,human CRMP-2,> 5.30
same,Bmax,"human CRMP-2; [14C]-lacosamide, binding curve 1 to 100 μM",about 200 pM/mg
same,specific binding,"human CRMP-2; crude membranes from CRMP-2 transfected Xenopus oocytes, 1 to 100 μM",competitive and specific binding was observed
same,survival rate after excitotoxic insult,[2],71%
same,neuroprotective effect after pre-incubation with CRMP-2 siRNA,[2]; CRMP-2 siRNA pre-incubation,diminished
"CC(=O)N[C@@H](CCCCNC(=O)C(CCCCNC(=O)CCCC[C@@H]1SC[C@@H]2NC(=O)N[C@@H]21)N=C=S)C(=O)NCc1ccccc1 (stereo partly drawn) [(S)-7, (S)—N-Benzyl-2-acetamido-6-[Nε-(biotinyl)-2-isothiocynato-6-aminohexanamido]-aminohexanamide]",proteins captured in pull-down,CRMP-2,"enrichment of an overlapping set of proteins, including collapsing response mediator protein (CRMP-2)"
"COC[C@H](NC(C)=O)C(=O)NCc1ccccc1 (single isomer, unassigned) [S-enantiomer of lacosamide]",survival rate after excitotoxic insult,[2]; listed as S-enantiomer,only a minor effect
"COC[C@@H](NC(C)=O)C(=O)NCc1cccc(NC(=O)C(CCCCNC(=O)CCCCC2SCC3NC(=O)NC32)N=C=S)c1 (stereo partly drawn) [(R)-34, (R)—N-{3-[Nε-(biotinyl)-2-isothiocynato-6-aminohexanamide]-benzyl}-2-acetamido-3-methoxypropion-amide]",proteins captured in pull-down,CRMP-2,"enrichment of an overlapping set of proteins, including collapsing response mediator protein (CRMP-2)"
"CC(=O)N[C@H](CCCCNC(=O)C(CCCCNC(=O)CCCC[C@@H]1SC[C@@H]2NC(=O)N[C@@H]21)N=C=S)C(=O)NCc1ccccc1 (stereo partly drawn) [(R)-7, (R)—N-Benzyl-2-acetamido-6-[Nε-(biotinyl)-2-isothiocynato-6-aminohexanamido]-aminohexanamide]",proteins captured in pull-down,CRMP-2,"enrichment of an overlapping set of proteins, including collapsing response mediator protein (CRMP-2)"
